“Also recorded” adds a separate entry of the source.
Columns and labels:
[1] = Determination of small molecule iron binding (UV-Vis); conditions: pH 7.0
Method: Small molecule iron (III) binding was determined by UV-Vis spectroscopy of small molecules (30 μM) before and after addition of FeCl3 (10 μM) or iron (III) citrate (10 μM, Sigma F3388) in 10 mM MES/Tris buffer at pH=7.0. Iron (II) binding was determined by UV-Vis spectroscopy of small molecules (30 μM) and FeCl2 (10 μM) in a 25 mM MES/Tris buffer at pH=7.0 containing 62.5 mM sodium ascorbate.

[2] = test system: DMT1-deficient Caco-2 monolayers; assay: 55Fe uptake and transport in DMT1-deficient Caco-2 monolayers; conditions: for iron uptake and transepithelial transport: apical addition (hinokitiol 500 nM), pH 5.5 apical, pH 7.4 basolateral, four hours
Method: Media from differentiated Caco-2 monolayers (P25-50, 21-28 days post seeding) grown on PET inserts in 6-well plates was aspirated, and monolayers were rinsed with PBS. 2 mL of basolateral fluid (serum-free DMEM at pH=7.4 in 10 mM HEPES buffer) was added to the basolateralside, and 1 mL of apical fluid (serum-free DMEM at pH=5.5 in 10 mM MES buffer) containing 200 nM ^55FeCl3 or the indicated concentration of FeCl3 and either DMSO vehicle, hinokitiol, C2deOHino, deferiprone, PIH, SIH, or deferoxamine mesylate (Sigma D9533) (500 nM Hino/C2deOHino for DMT1-deficiency, 1 μM Hino/C2deOHino for FPN1-deficiency, or indicated concentration of small molecule from a 1000X stock in DMSO) was added to the apical side via addition on the wall of the membrane insert without disrupting the cell monolayer. The monolayers were then incubated for four hours at 37° C. unless otherwise noted. A 100 μL aliquot of the basolateral fluid was removed, diluted in scintillation cocktail, and radioactivity was determined on a liquid scintillation counter to quantify relative amounts of ^55Fe transport. To determine intracellular ^55Fe, the basolateral and apical media was removed, and the monolayer was rinsed with PBS (×2). The cells were then lysed with 500 μL of 200 mM NaOH with nutator mixing overnight, and radioactivity was determined on a liquid scintillation counter after diluting the cell lysate in scintillation cocktail. All values were normalized to shControl monolayers unless otherwise noted. Absolute iron levels were determined through calibration of ^55Fe radioactivity levels with known standards and average mg of protein per membrane was determined by protein lysis with RIPA buffer containing protease inhibitors and quantified through a BCA kit according to manufacturer instructions.
TEER determination in Caco-2 monolayers (FIG. 12D and FIG. 14L) To determine Caco-2 membrane integrity, transport studies were performed as described above, except for the use of non-radioactive iron instead of ^55FeCl3. At the indicated time points, the transepithelial electrical resistance (TEER) was determined with an epithelial voltohmmeter and compared to the TEER of the membrane at the beginning of the experiment.

[3] = test system: J774 macrophages; assay: Temporal imaging of cytosolic iron levels in J774 macrophages; format: cell-based, mouse; conditions: for calcein green fluorescence after reversal of the gradient: external FeCl3 100 μM at t=12 min; for calcein green fluorescence after small molecule addition: iron-loaded cells, 100 μM small molecule at t=5 min
Method: To assess for the capacity for hinokitiol to reversibly and autonomously transport iron across the plasma membrane through the creation of artificial iron gradients, J774 macrophages were grown in Ibidi dishes (Ibidi NC0723624) to ˜80% confluency before incubation with J774 Complete media containing 5 mM ascorbic acid and 200 μM FeSO4. The cells were incubated for 1.5 hours, media was aspirated, and the cells were rinsed with PBS. The cells were then incubated with calcein green-AM (1 μM) in DMEM for 20 minutes at 37° C. The media was aspirated and cells were rinsed (×2) with PBS before DMEM (pH=7.4 in 10 mM HEPES) and 1 mM probenecid (Sigma P8761) was added. Calcein green fluorescence was then imaged on a LSM880 microscope at 37° C. with 5% CO2 at the indicated time points for 30 minutes. Hinokitiol (100 μM final concentration), C2deOHino (100 μM final concentration), or DMSO (all from 1000X stocks in 50 μL DMEM) were added at 5 minutes, and a solution of FeCl3 (100 μM final concentration, in 50 μL DMEM) was added at 12 minutes. Fluorescence in each image at each time point was analyzed by ImageJ analysis then normalized to the fluorescence at t=0 for each image using >100 cells per experiment.

[4] = test system: Alas2-deficient sauternes zebrafish; assay: Hemoglobinization in Alas2-deficient sauternes zebrafish; format: in vivo, Danio rerio; conditions: heterozygous cross of +/sau fish, 1 μM, 48 hours
Method: Either mutant or morphant embryos were allowed to develop to >24 hours post fertilization (hpf), then dechorionated with pronase as previously described (81). The dechorionated embryos or morphants were then incubated in the presence of 1 μM hinokitiol (or vehicle) and 10 μM iron (III) citrate for an additional forty-eight hours. Vehicle treated embryos were exposed to […]. C2deOHino (1 μM) with iron (III) citrate (10 μM) was used as a negative control. Control and either mutant or morphant embryos at ˜72 hpf were either (a) directly stained by o-dianisidine (79) or (b) mechanically homogenized as previously described for flow cytometry (75, 78).

[5] = test system: Caco-2; assay: WST-8 toxicity in Caco-2 cells
Method: Determination of small molecule-mediated toxicity in Caco-2, MEL, and/or J774 cells was performed according to manufacturer instructions using a WST-8 kit (Cayman Chemical 10010199) similar to previously reported (76) using a 1000× stock of the indicated small molecule in DMSO to give the indicated final concentration.

[6] = test system: fet3Δftr1Δ yeast; assay: Metal selectivity in yeast (ICP-MS); format: cell-based, Saccharomyces cerevisiae; conditions: 10 μM hinokitiol, 100 μM FeCl3
Method: Hinokitiol-mediated changes in intracellular metal levels were determined using growth rescue conditions from FIG. 13H and an adaptation of the Fe uptake study in FIG. 1G. Specifically, wild type and fet3Δftr1Δ yeast were grown in YPD media overnight, rinsed, and incubated in SD media without FeCl3 at 30° C. for 3 hours. Yeast were then resuspended at an OD600=0.50 in SD media (50 mM MES/Tris, pH=7.0) containing 100 μM FeCl3 and either DMSO vehicle or 10 μM hinokitiol. After 2.5 hours of incubation, cells were centrifuged at 5° C., rinsed twice with cold 10 mM EDTA in 50 mM Tris/HCl buffer (pH=6.5), and once with cold metal-free water. Cells were then lyophilized for 48 hours. The lyophilized cells were digested with a 5:1 mixture of HNO3:HCl and then subjected to an automated sequential microwave digestion in a CEM Discover SP-D microwave digester. The resulting clear solution was diluted in metal-free water, and elemental analysis was performed by ICP-MS.

[7] = test system: FPN1-deficient Flatiron (ffe/+) mice; assay: 59Fe gut absorption in Flatiron mice; format: in vivo; conditions: 1.5 mg/kg, oral gavage, after one and two hours
Method: Temporal live cell imaging of labile iron levels in shDMT1 Caco-2 monolayers was performed after staining of Caco-2 monolayers with calcein green-AM (5 μM) in the apical and basolateral liquid for 30 minutes in pH=7.4 DMEM. […] Final volume administered was 1.5 mL/kg for each mouse, correcting for individual body weight. […] […] Radioactivity was quantified by gamma counting and calculated as the percentage of gavaged dose (±SEM). Experiments were performed with 4 genotyped-matched mice/day; preliminary analysis determined there were no gender effects on uptake of ^59Fe after intragastric gavage; mixed genders were used in the experiments shown.

Row | SMILES | iron binding [1] | iron uptake and transepithelial transport [2] | calcein green fluorescence after reversal of the gradient [3] | calcein green fluorescence after small molecule addition [3] | hemoglobinization [4] | EC90 ([5]; read-out: Toxicity (EC90), Wild Type Caco-2, WST-8 assay after ≥24 hours of incubation) [µM] | intracellular iron levels relative to vehicle-treated controls [6] | intracellular levels of manganese, cobalt, nickel, zinc, and copper [6] | monolayer integrity (TEER) ([2]; 500 nM) | 59Fe absorption [7] | hemoglobinization ([4]; listed as Hinokitiol) | observable toxicity ([5]; Caco-2 monolayers, hinokitiol 500 nM)
1 | CC(C)c1cccc(=O)cc1 [C2deOHino, C2-deoxy hinokitiol] | does not bind iron; also recorded: cannot bind or transport iron | did not promote both uptake and transport | no effect | no effect | do not promote hemoglobinization | > 100 |  |  |  |  |  | 
2 | CC(C)c1cccc(=O)c(O)c1 [hinokitiol] | binds iron (III) | restored uptake and transport | quenching of calcein green fluorescence was observed | rapidly increased calcein green fluorescence | did not rescue |  | increased | unchanged | did not disrupt monolayer integrity | increased ^59Fe absorption | do not promote hemoglobinization | no observable toxicity
